Assay results taken from patent publication US11040028B2, “Penicinotam derivative, preparation method and use thereof” (OCEAN UNIVERSITY OF CHINA, priority 2017, dated 2021).

Legend:
Assay type in all cases: cell-based
BHK-21 cells = test: Anti-fibrosis activity test: inhibition of BHK-21 cell proliferation (CCK-8); settings: Mesocricetus auratus, BHK-21, 48 h, CCK-8, 48 hours after administration
Outline: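 Cells seeded at 2×10^4 cells/mL, allowed to adhere 24 hours, then exposed to graded compound concentrations in triplicate for 48 hours at 37° C, 5% CO2. CCK-8 added for 2 hours, absorbance read at 450 nm; inhibition versus blank control used to derive IC50. Pirfenidone served as positive control.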

[1] = test system: human lung fibroblasts HFL1; test: Anti-fibrosis activity test: inhibition of proliferation of human lung fibroblasts HFL1 (CCK-8); settings: Homo sapiens, HFL1, 48 h, human lung fibroblasts HFL1, CCK-8, 48 hours
Outline: (§1)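 Proliferation read by CCK-8 (2 h, A450) after 48 h compound treatment of cells plated at 2×10^4 cells/mL and allowed 24 h attachment, triplicate per concentration. Inhibition rate derived from absorbance relative to untreated blank, with IC50 fitted; pirfenidone as positive control.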

[2] = test system: human hepatic stellate cells LX-2; test: Anti-fibrosis activity test: inhibition of proliferation of human hepatic stellate cells LX-2 (CCK-8); settings: Homo sapiens, 48 h, human hepatic stellate cells LX-2, CCK-8, 48 hours
Outline: as §1

[3] = test system: human fibrosarcoma cells HT-1080; test: Anti-fibrosis activity test: inhibition of proliferation of human fibrosarcoma cells HT-1080 (CCK-8); settings: Homo sapiens, HT-1080, 48 h, human fibrosarcoma cells HT-1080, CCK-8, 48 hours
Outline: as §1

[4] = test system: human dermal fibroblasts CCC-ESF-1; test: Anti-fibrosis activity test: inhibition of proliferation of human dermal fibroblasts CCC-ESF-1 (CCK-8); settings: Fibroblast; human dermal fibroblasts CCC-ESF-1, CCK-8, 48 hours
Outline: as §1

[5] = test system: human embryonic lung fibroblast IMR-90; test: Anti-fibrosis activity test: inhibition of proliferation of human embryonic lung fibroblast IMR-90 (CCK-8); settings: human embryonic lung fibroblast IMR-90, CCK-8, 48 hours
Outline: as §1

[6] = test system: cardiac fibroblast RAT-iCell-C002; test: Anti-fibrosis activity test: inhibition of proliferation of cardiac fibroblast RAT-iCell-C002 (CCK-8); settings: Cardiac fibroblast, 48 h, cardiac fibroblast RAT-iCell-C002, CCK-8, 48 hours
Outline: as §1

NF-κB = test: Immunological activity test: inhibition of NF-κB activity; settings: initial concentration of 30 μM; a/b isomers given as first/second symbol; read-out: IC50 (μM), inhibitory activity against NF-κB
Excerpt: Main references for immunological activity test of the compounds of the present application includes: Vogl, S.; Atanasov, A. G.; Binder, M.; Bulusu, M.; Zehl, M.; Fakhrudin, N.; Heiss, E. H.; Picker, P.; Wawrosch, C.; Saukel, J.; Reznicek, G.; Urban, E.; Bochkov, V.; Dirsch, V. M.; Kopp, B. J. Evid-Based Complementary Alern. Med. 2013, ID 395316. Commercially available parthenolide was utilized as a positive control.
The ability of the compounds of the present application to inhibit NF-κB activity was tested at an initial concentration of 30 μM.
The assay data for the compounds of the present application were further analyzed to determine their IC50 values.

Structure (SMILES)	IC50 [3] [mM]	IC50 (NF-κB) [µM]	IC50 (BHK-21 cells) [mM]	IC50 [1] [mM]	IC50 [2] [mM]	IC50 [4] [mM]	IC50 [5] [mM]	IC50 [6] [mM]
O=C1c2c(nc3ccc(F)cc3c2OCc2ccc(Cl)cc2)-c2cccn21 [Compound 618b, 9-((4-chlorobenzyl)oxy)-7-fluoro-10H-pyrrolizino[1,2-b]quinolin-10-one]	0.05 to 5	1 to 10	0.05 to 5	0.05 to 5	0.05 to 5	0.05 to 5	0.05 to 5	0.05 to 5
N#Cc1ccc(COc2c3c(nc4ccc(F)cc24)-c2cccn2C3=O)cc1 [Compound 619b, 4-(((7-fluoro-10-oxo-10H-pyrrolizino[1,2-b]quinolin-9-yl)oxy)methyl)benzonitrile]	0.05 to 5	1 to 10	0.05 to 5	0.05 to 5	0.05 to 5	< 0.05	0.05 to 5	0.05 to 5
O=C1c2c(n(Cc3ccc(C(F)(F)F)cc3)c3ccc(F)cc3c2=O)-c2cccn21 [Compound 620a, 7-Fluoro-4-(4-(trifluoromethyl)benzyl)-9H-pyrrolizino[1,2-b]quinoline-9,10(4H)-dione]	0.05 to 5	1 to 10	< 0.05	0.05 to 5	0.05 to 5	5 to 20	0.05 to 5	0.05 to 5
O=C1c2c(nc3ccc(F)cc3c2OCc2ccc(C(F)(F)F)cc2)-c2cccn21 [Compound 620b, 7-Fluoro-9-((4-(trifluoromethyl)benzyl)oxy)-10H-pyrrolizino[1,2-b]quinolin-10-one]	0.05 to 5	1 to 10	0.05 to 5	0.05 to 5	0.05 to 5	5 to 20	0.05 to 5	0.05 to 5
O=C1c2c(n(Cc3ccc(Cl)cc3F)c3ccc(F)cc3c2=O)-c2cccn21 [Compound 621a, 4-(4-Chloro-2-fluorobenzyl)-7-fluoro-9H-pyrrolizino[1,2-b]quinoline-9,10(4H)-dione]	0.05 to 5	1 to 10	0.05 to 5	0.05 to 5	0.05 to 5	0.05 to 5	0.05 to 5	0.05 to 5
O=C1c2c(nc3ccc(F)cc3c2OCc2ccc(Cl)cc2F)-c2cccn21 [Compound 621b, 9-((4-chloro-2-fluorobenzyl)oxy)-7-fluoro-10H-pyrrolizino[1,2-b]quinolin-10-one]	0.05 to 5	1 to 10	0.05 to 5	0.05 to 5	0.05 to 5	0.05 to 5	0.05 to 5	0.05 to 5
O=C1c2c(nc3ccc(F)cc3c2OCc2cc(C(F)(F)F)cc(C(F)(F)F)c2)-c2cccn21 [Compound 623b, 9-((3,5-bis(trifluoromethyl)benzyl)oxy)-7-fluoro-10H-pyrrolizino[1,2-b]quinolin-10-one]	0.05 to 5	1 to 10	0.05 to 5	0.05 to 5	0.05 to 5	0.05 to 5	0.05 to 5	0.05 to 5
N#Cc1ccc2c(c1)c(=O)c1c(n2Cc2ccc(F)cc2)-c2cccn2C1=O [Compound 624a, 4-(4-Fluorobenzyl)-9,10-dioxo-4,10-dihydro-9H-pyrrolizino[1,2-b]quinoline-7-carbonitrile]	0.05 to 5	0.1 to 1	< 0.05	< 0.05	5 to 20	0.05 to 5	0.05 to 5	0.05 to 5
N#Cc1ccc2c(c1)c(=O)c1c(n2Cc2ccc(Cl)cc2)-c2cccn2C1=O [Compound 625a, 4-(4-Chlorobenzyl)-9,10-dioxo-4,10-dihydro-9H-pyrrolizino[1,2-b]quinoline-7-carbonitrile]	0.05 to 5	1 to 10	0.05 to 5	0.05 to 5	0.05 to 5	0.05 to 5	0.05 to 5	0.05 to 5
N#Cc1ccc2nc3c(c(OCc4ccc(Cl)cc4)c2c1)C(=O)n1cccc1-3 [Compound 625b, 9-((4-chlorobenzyl)oxy)-10-oxo-10H-pyrrolizino[1,2-b]quinoline-7-carbonitrile]	0.05 to 5	1 to 10	0.05 to 5	0.05 to 5	0.05 to 5	0.05 to 5	0.05 to 5	0.05 to 5
N#Cc1ccc2nc3c(c(OCc4ccc(C(F)(F)F)cc4)c2c1)C(=O)n1cccc1-3 [Compound 627b, 10-oxo-9-((4-(trifluoromethyl)benzyl)oxy)-10H-pyrrolizino[1,2-b]quinoline-7-carbonitrile]	0.05 to 5	1 to 10	0.05 to 5	0.05 to 5	0.05 to 5	0.05 to 5	0.05 to 5	0.05 to 5

Further lines, with some results ahead:

IC50 [3] [mM]	IC50 (NF-κB) [µM]	Structure (SMILES)	IC50 (BHK-21 cells) [mM]	IC50 [1] [mM]	IC50 [2] [mM]	IC50 [4] [mM]	IC50 [5] [mM]	IC50 [6] [mM]
0.05 to 5	1 to 10	O=C1c2c(nc3ccc(F)cc3c2OCc2ccc(F)cc2)-c2cccn21 [Compound 617b, 7-fluoro-9-((4-fluorobenzyl)oxy)-10H-pyrrolizino[1,2-b]quinolin-10-one]	0.05 to 5	0.05 to 5	0.05 to 5	0.05 to 5	0.05 to 5	0.05 to 5
0.05 to 5	1 to 10	O=C1c2c(n(Cc3ccc(Cl)cc3)c3ccc(F)cc3c2=O)-c2cccn21 [Compound 618a, 4-(4-Chlorobenzyl)-7-fluoro-9H-pyrrolizino[1,2-b]quinoline-9,10(4H)-dione]	0.05 to 5	0.05 to 5	0.05 to 5	0.05 to 5	0.05 to 5	0.05 to 5
0.05 to 5	1 to 10	N#Cc1ccc(Cn2c3c(c(=O)c4cc(F)ccc42)C(=O)n2cccc2-3)cc1 [Compound 619a, 4-((7-Fluoro-9,10-dioxo-9H-pyrrolizino[1,2-b]quinolin-4(10H)-yl)methyl)benzonitrile]	0.05 to 5	0.05 to 5	0.05 to 5	< 0.05	0.05 to 5	0.05 to 5
0.05 to 5	1 to 10	O=C1c2c(n(Cc3cc(C(F)(F)F)cc(C(F)(F)F)c3)c3ccc(F)cc3c2=O)-c2cccn21 [Compound 623a, 4-(3,5-Bis(trifluoromethyl)benzyl)-7-fluoro-9H-pyrrolizino[1,2-b]quinoline-9,10(4H)-dione]	< 0.05	0.05 to 5	0.05 to 5	< 0.05	0.05 to 5	0.05 to 5
0.05 to 5	1 to 10	N#Cc1ccc2nc3c(c(OCc4ccc(F)cc4)c2c1)C(=O)n1cccc1-3 [Compound 624b, 9-((4-fluorobenzyl)oxy)-10-oxo-10H-pyrrolizino[1,2-b]quinoline-7-carbonitrile]	0.05 to 5	< 0.05	5 to 20	0.05 to 5	0.05 to 5	0.05 to 5
0.05 to 5	1 to 10	N#Cc1ccc(Cn2c3c(c(=O)c4cc(C#N)ccc42)C(=O)n2cccc2-3)cc1 [Compound 626a, 4-(4-Cyanobenzyl)-9,10-dioxo-4,10-dihydro-9H-pyrrolizino[1,2-b]quinoline-7-carbonitrile]	0.05 to 5	0.05 to 5	0.05 to 5	< 0.05	0.05 to 5	0.05 to 5
0.05 to 5	1 to 10	N#Cc1ccc(COc2c3c(nc4ccc(C#N)cc24)-c2cccn2C3=O)cc1 [Compound 626b, 9-((4-cyanobenzyl)oxy)-10-oxo-10H-pyrrolizino[1,2-b]quinoline-7-carbonitrile]	0.05 to 5	0.05 to 5	0.05 to 5	< 0.05	0.05 to 5	0.05 to 5
0.05 to 5	1 to 10	N#Cc1ccc2c(c1)c(=O)c1c(n2Cc2ccc(C(F)(F)F)cc2)-c2cccn2C1=O [Compound 627a, 9,10-Dioxo-4-(4-(trifluoromethyl)benzyl)-4,10-dihydro-9H-pyrrolizino[1,2-b]quinoline-7-carbonitrile]	< 0.05	0.05 to 5	0.05 to 5	0.05 to 5	0.05 to 5	0.05 to 5
